ChEMBL document CHEMBL1201862, “PubChem BioAssay data set” (2004)
Active and inactive are the calls of the source.

What was measured:
[1] = Luminescence Cell-Based Dose Response HTS to Identify Activators of 5'UTR Stem-Loop Driven Prion Protein mRNA Translation in H4-C Neuroglioblastoma Cells. [Related pubchem assays: 1829 (Project Summary), 1814 (Primary HTS)]; type: functional
[2] = HepG2 cell cytotoxicity, dose response, cytotoxicity control for Shn3 inhibitor project, CellTiter-Glo, cherry-picked (AID 624134); type: functional, cell-based
[3] = Luminescence Cell-Based Dose Response HTS to Identify Inhibitors of 5'UTR Stem-Loop Driven Prion Protein mRNA Translation in H4 Neuroglioblastoma Cells. [Related pubchem assays: 1827 (Project Summary), 1813 (Primary HTS)]; type: functional
[4] = Luminescence Cell-Based Dose Response HTS to Identify Activators of Luciferase Translation or Activity in H4-C Neuroglioblastoma Cells. [Related pubchem assays: 1829 (Project Summary), 1814 (Primary HTS)]; type: functional
[5] = Luminescence Cell-Based Dose Retest to Confirm Activators of 5'UTR Stem-Loop Driven Alpha-Synuclein mRNA Translation in H4 Neuroglioblastoma Cells. [Related pubchem assays (depositor defined):AID1813, AID1829]; type: functional
[6] = Shn3 3'UTR reporter inhibitors, dose response, cell-based, Clone20 osteoblasts, firefly luciferase, cherry-picked (AID 624132); type: functional;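 further: firefly luciferase luminescence from reporter carrying the Shn3 3'UTR in osteoblasts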
[7] = inhibitors of SNCA 5'UTR-driven reporter translation, confirmation, H4 neuroglioma cells, luminescence (AID 1988); type: functional, cell-based
[8] = cytotoxicity in HEK-293T cells, dose response, cytotoxicity control for TCR NF-kB inhibitor project, luminescence, T-cell screen hits (AID 489026); type: functional, cell-based;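 further: cells exposed to compound about 14 hours before the viability readout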
[9] = Luminescence Cell-Based Dose Confirmation HTS to Identify Inhibitors of 5'UTR Stem-Loop Driven Alpha-Synuclein mRNA Translation in H4 Neuroglioblastoma Cells. [Related pubchem assays: 1827 (Project Summary), 1813 (Primary HTS)]; type: functional
[10] = control 3'UTR Renilla luciferase suppression, dose response, counter-screen for Shn3 inhibitor project, cell-based, Clone20-Shn3RL, cherry-picked (AID 624133); type: functional
[11] = Luminescence Cell-Based Dose HTS Response to Identify Inhibitors of 5'UTR Stem-Loop Driven Prion Protein mRNA Translation in H4-C Neuroglioblastoma Cells. [Related pubchem assays (depositor defined):AID1814, AID1827]; type: functional
[12] = inhibitors of firefly luciferase expression or activity, dose response, H4 neuroglioma cells, luminescence (AID 1990); type: functional, cell-based
[13] = Luminescence Cell-Based Dose Response HTS to Identify Inhibitors of Luciferase Translation or Activity in H4-C Neuroglioblastoma Cells. [Related pubchem assays: 1813 (Primary HTS), 1827 (Project Summary)]; type: functional
Trypsin = Trypsin (Sus scrofa, UniProt P00761); assay: porcine trypsin inhibitors, dose response, selectivity assay for Rce1 protease inhibitor project, biochemical, quenched peptide fluorescence, cherry-pick (AID 488789)
Sequence of Trypsin (P00761 whole entry): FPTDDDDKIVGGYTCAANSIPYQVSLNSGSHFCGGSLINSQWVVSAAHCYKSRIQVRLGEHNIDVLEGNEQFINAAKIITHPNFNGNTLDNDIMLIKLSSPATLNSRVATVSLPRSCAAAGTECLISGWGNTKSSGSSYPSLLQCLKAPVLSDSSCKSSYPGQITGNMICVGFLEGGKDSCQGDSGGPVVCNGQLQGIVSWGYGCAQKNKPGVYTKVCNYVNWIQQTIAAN

[14] = mammalian cell cytotoxicity, dose response, cytotoxicity control, plate reader, cherry-pick samples (AID 504397); type: functional, cell-based
CAAX prenyl protease 2 = biological target: T1, CAAX prenyl protease 2 (Saccharomyces cerevisiae S288c, UniProt Q03530); type: biochemical
T1 sequence (Q03530 whole entry): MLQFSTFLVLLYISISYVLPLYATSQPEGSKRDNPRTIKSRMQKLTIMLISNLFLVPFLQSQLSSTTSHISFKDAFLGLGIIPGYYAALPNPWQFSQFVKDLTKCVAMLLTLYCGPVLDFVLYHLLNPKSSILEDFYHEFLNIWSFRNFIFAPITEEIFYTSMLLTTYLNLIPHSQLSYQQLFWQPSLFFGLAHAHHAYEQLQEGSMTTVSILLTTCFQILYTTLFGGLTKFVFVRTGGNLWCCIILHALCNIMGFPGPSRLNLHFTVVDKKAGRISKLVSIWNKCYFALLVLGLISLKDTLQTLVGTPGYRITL

[15] = biological target: Sphingosine 1-phosphate receptor 2 (Homo sapiens, UniProt O95136); assay: (§1) Late-stage fluorescence-based dose-response cell-based assay to identify agonists of the Sphingosine 1-Phosphate Receptor 4 (S1P4): Sphingosine 1-Phosphate Receptor 2 (S1P2) counterscreen assay. [Related pubchem assays (depositor defined):AID1509, AID1523, AID1563, AID1686, AID1701, AID1801, AID463107, AID463225, AID504400]; type: functional
Sequence of Sphingosine 1-phosphate receptor 2 (O95136 whole entry): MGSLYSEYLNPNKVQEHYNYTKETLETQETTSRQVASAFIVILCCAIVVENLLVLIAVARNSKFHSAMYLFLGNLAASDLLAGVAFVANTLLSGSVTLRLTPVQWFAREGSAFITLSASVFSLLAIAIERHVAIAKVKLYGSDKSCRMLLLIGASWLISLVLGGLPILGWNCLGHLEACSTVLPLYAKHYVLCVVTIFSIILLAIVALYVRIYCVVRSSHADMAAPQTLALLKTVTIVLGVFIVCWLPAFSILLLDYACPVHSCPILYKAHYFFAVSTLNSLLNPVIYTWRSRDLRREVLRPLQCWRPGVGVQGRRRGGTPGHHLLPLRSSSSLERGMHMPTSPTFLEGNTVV

[16] = biological target: Sphingosine 1-phosphate receptor 3 (Homo sapiens, UniProt Q99500); assay: as §1, with “3 (S1P3)” for “2 (S1P2)”; type: functional
Sequence of Sphingosine 1-phosphate receptor 3 (Q99500 whole entry): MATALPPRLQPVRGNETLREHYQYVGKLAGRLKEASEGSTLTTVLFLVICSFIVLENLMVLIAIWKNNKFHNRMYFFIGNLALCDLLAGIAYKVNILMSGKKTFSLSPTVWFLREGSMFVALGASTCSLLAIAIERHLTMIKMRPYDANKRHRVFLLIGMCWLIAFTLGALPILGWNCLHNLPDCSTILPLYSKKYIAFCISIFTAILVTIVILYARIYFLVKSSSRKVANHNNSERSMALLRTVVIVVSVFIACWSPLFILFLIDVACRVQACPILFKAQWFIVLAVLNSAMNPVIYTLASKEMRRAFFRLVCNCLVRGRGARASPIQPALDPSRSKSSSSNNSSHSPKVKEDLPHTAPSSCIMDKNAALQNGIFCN

[17] = biological target: Sphingosine 1-phosphate receptor 1 (Homo sapiens, UniProt P21453); assay: as §1, with “1 (S1P1)” for “2 (S1P2)”; type: functional
Sequence of Sphingosine 1-phosphate receptor 1 (P21453 whole entry): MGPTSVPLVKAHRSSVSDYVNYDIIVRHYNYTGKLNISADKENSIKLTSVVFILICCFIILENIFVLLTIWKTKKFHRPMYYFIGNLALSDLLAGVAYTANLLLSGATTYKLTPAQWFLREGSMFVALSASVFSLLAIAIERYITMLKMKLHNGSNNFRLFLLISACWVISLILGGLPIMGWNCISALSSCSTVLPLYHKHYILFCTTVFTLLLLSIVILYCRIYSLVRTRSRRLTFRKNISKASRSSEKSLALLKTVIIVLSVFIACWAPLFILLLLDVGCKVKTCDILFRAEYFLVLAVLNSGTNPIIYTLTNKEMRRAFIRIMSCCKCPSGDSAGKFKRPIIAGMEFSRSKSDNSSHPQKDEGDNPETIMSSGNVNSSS

[18] = biological target: Sphingosine 1-phosphate receptor 5 (Homo sapiens, UniProt Q9H228); assay: as §1, with “5 (S1P5)” for “2 (S1P2)”; type: functional
Sequence of Sphingosine 1-phosphate receptor 5 (Q9H228 whole entry): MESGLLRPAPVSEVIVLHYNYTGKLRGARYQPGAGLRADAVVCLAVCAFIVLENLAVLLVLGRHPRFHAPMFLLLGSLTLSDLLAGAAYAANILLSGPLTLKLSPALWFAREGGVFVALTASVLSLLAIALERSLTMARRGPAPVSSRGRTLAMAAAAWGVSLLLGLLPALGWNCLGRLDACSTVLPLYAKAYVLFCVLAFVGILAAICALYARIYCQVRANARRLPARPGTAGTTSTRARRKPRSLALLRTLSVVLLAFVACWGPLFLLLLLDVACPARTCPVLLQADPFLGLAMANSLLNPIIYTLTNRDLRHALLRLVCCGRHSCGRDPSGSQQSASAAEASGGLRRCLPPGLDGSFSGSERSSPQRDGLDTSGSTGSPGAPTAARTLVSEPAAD

[19] = biological target: T2, G-protein coupled receptor 35 (Homo sapiens, UniProt Q9HC97); assay: SAR analysis of Agonists of the GPR35 Receptor using an Image-Based Assay - Set 4. [Related pubchem assays (depositor defined):AID2013, AID2026]; type: functional
T2 sequence (Q9HC97 whole entry): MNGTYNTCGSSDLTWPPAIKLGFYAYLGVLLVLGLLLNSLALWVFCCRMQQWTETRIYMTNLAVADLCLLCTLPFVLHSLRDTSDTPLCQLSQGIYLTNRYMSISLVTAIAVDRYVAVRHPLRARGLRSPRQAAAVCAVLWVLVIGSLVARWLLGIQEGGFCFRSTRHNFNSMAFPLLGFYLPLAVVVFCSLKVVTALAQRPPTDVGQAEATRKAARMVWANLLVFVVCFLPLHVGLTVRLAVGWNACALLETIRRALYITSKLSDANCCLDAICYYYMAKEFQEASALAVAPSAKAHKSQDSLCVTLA

Cannabinoid receptor 1 [20] = biological target: T3, Cannabinoid receptor 1 (Homo sapiens, UniProt P21554); assay: SAR analysis of agonists of the Cannabinoid Receptor 1 using an Image-Based Assay - Set 4. [Related pubchem assays (depositor defined):AID2013, AID2026]; type: functional
T3 sequence (P21554 whole entry): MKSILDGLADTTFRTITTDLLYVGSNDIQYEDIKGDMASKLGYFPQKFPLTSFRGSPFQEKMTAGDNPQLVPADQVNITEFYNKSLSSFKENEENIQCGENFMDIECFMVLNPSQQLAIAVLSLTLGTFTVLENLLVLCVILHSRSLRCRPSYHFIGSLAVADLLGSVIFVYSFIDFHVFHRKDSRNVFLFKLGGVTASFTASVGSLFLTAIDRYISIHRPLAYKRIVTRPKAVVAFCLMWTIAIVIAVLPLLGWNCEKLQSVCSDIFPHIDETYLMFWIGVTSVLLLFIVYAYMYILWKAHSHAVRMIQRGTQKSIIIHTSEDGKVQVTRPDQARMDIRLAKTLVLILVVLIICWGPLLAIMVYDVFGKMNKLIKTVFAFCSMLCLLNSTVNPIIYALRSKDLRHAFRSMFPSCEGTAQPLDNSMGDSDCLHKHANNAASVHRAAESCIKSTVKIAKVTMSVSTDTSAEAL

Cannabinoid receptor 1 [21] = biological target: T3, Cannabinoid receptor 1; assay: SAR analysis of antagonists of the Cannabinoid Receptor 1 using an Image-Based Assay - Set 4. [Related pubchem assays (depositor defined):AID2013, AID2026]; type: functional
Cannabinoid receptor 2 [22] = biological target: T4, Cannabinoid receptor 2 (Homo sapiens, UniProt P34972); assay: SAR analysis of agonists of the Cannabinoid Receptor 2 using an Image-Based Assay - Set 3. [Related pubchem assays (depositor defined):AID2013, AID2026]; type: functional
T4 sequence (P34972 whole entry): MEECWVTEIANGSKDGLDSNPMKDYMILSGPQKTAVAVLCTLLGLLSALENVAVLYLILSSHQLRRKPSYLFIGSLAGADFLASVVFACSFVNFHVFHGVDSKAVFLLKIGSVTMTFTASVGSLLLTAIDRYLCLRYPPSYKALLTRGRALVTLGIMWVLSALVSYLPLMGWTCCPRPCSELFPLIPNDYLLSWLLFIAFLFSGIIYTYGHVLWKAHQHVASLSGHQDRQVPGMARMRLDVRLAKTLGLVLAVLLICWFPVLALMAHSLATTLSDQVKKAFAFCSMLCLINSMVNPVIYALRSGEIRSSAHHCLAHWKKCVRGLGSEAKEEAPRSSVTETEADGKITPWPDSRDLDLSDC

[23] = biological target: G-protein coupled receptor 55 (Homo sapiens, UniProt Q9Y2T6); assay: SAR Analysis of Selective Antagonists of GPR55 using an Image-Based Assay - Set 4. [Related pubchem assays (depositor defined):AID2013, AID2026]; type: functional;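 further: antagonism of response to 5 µM lysophosphatidylinositol agonist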
Sequence of G-protein coupled receptor 55 (Q9Y2T6 whole entry): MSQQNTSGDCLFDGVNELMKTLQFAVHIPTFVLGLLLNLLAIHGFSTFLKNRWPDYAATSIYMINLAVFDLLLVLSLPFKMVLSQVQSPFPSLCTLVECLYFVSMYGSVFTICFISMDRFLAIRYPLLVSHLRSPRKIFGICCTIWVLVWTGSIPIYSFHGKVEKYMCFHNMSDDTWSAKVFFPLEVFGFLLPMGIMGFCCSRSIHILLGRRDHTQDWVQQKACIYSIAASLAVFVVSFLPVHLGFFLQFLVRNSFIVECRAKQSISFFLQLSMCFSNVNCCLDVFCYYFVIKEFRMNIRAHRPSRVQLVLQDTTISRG

Cannabinoid receptor 2 [24] = biological target: T4, Cannabinoid receptor 2; assay: SAR analysis of antagonists of the Cannabinoid Receptor 2 using an Image-Based Assay - Set 3. [Related pubchem assays (depositor defined):AID2013, AID2026]; type: functional
[25] = biological target: T2, G-protein coupled receptor 35; assay: SAR analysis of Antagonists of the GPR35 Receptor using an Image-Based Assay - Set 6. [Related pubchem assays (depositor defined):AID2013, AID2026]; type: functional

SMILES: CCCOc1ccccc1C1CC(=O)Nc2cc3c(cc21)OCO3 (configuration not stated)
- EC50 [1]: 2.4 µM (inconclusive)
- AC50 [2]: > 70 µM (inactive)
- EC50 [3]: > 120 µM (not active)
- EC50 [4]: 2.97 µM (inconclusive)
- EC50 [5]: 35.8 µM (inconclusive)
- AC50 [6]: 5.72 µM (active)
- EC50 [7]: 0.158 µM (active)
- IC50 [8]: 60.1 µM (inactive)
- EC50 [9]: 35.8 µM (active)
- AC50 [10]: 15.3 µM (active)
- EC50 [11]: 2.4 µM (active)
- EC50 [12]: 3.65 µM (inconclusive)
- EC50 [13]: 2.97 µM (active)

SMILES: COc1cccc(C2CC(c3ccc(Br)cc3)=NN2C(=O)c2ccncc2)c1OC (configuration not stated)
- AC50 (Trypsin): 48.7 µM (active)
- AC50 [14]: 45.2 µM (active)
- AC50 (CAAX prenyl protease 2): 3.7 µM (active)

SMILES: Cc1ccc(OCCOc2c(Cl)cc(Cl)cc2Cl)c([N+](=O)[O-])n1
- EC50 [15]: > 50 µM (inactive)
- EC50 [16]: > 50 µM (inactive)
- EC50 [17]: > 50 µM (inactive)
- EC50 [18]: > 50 µM (inactive)

SMILES: N=c1c(C(=O)NC2CCCCC2)cc2c(=O)n3ccccc3nc2n1C1CCCC1
- EC50 [19]: > 32 µM (inactive)
- EC50 (Cannabinoid receptor 1 [20]): > 32 µM (inactive)
- IC50 (Cannabinoid receptor 1 [21]): > 32 µM (inactive)
- EC50 (Cannabinoid receptor 2 [22]): > 32 µM (inactive)
- IC50 [23]: 29 µM (inactive)
- IC50 (Cannabinoid receptor 2 [24]): > 32 µM (inactive)
- IC50 [25]: > 32 µM (inactive)
